Test [1] deals with p21 induction in HCT116 cells. Description: p21 induction in HCT116 cells. It counts as cell-based. To be noted: Homo sapiens, HCT-116, 24 h, HCT116 cells, 24 h compound incubation; read-out: P21_EC50. The procedure, abridged: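 HCT116 cells, 2,000/well, treated 24 h at 37 °C with 11-point compound dilutions in duplicate. Fixed, then immunostained for p21 and GAPDH and read by near-IR imaging at 800/700 nm. Normalized to DMSO (low) and reference WRN inhibitor (high) controls; EC50 from non-linear regression.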

Test [2] has as its target WRN (BV08), human Werner helicase (Uniprot Q14191, amino acids 517-1235 with L1074F point mutation) (Homo sapiens (Human), UniProt Q14191, L1074F). Briefly: WRN (BV08) ADP-Glo assay. It counts as biochemical. To be noted: class symbols A-E, read-out: ADP-Glo_hWRN_IC50. Background: ADP-Glo turns the ADP formed in a reaction into a luminescent signal.

WRN (BV08), human Werner helicase (Uniprot Q14191, amino acids 517-1235 with L1074F point mutation), sequence (Q14191 other isoform, or with tags, fused parts or gaps L1074F (already in the parent)): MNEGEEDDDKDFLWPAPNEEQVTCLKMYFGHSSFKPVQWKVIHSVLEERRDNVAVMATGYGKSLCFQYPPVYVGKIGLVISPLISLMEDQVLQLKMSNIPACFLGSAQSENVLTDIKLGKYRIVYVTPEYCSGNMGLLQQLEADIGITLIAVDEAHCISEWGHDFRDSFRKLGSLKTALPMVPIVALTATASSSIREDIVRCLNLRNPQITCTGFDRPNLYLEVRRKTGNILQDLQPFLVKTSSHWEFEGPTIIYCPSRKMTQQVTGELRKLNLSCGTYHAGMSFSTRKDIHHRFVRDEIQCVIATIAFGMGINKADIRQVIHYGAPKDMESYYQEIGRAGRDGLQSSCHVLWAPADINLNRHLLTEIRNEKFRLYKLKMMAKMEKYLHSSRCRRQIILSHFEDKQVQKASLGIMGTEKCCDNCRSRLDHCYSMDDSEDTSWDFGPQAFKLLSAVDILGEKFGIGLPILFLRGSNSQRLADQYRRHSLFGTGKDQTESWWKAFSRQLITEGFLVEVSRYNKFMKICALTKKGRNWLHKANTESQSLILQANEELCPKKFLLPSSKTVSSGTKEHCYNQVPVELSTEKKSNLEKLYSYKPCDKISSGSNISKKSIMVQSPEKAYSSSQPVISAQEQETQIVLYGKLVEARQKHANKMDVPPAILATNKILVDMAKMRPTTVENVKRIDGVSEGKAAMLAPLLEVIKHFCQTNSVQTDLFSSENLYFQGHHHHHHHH

On to `CCc1c(N2CCN(C(=O)c3ncnc(C)c3O)CC2)c(=O)c2nc3cc(C)sc3nc2n1CC(=O)NC12CC(C(F)(F)F)(C1)C2` [I-115, 2-(7-ethyl-6-(4-(5-hydroxy-6-methylpyrimidine-4-carbonyl)piperazin-1-yl)-2-methyl-5-oxopyrido[2,3-b]thieno[3,2-e]pyrazin-8(5H)-yl)-N-(3-(trifluoromethyl)bicyclo[1.1.1]pentan-1-yl)acetamide], for which, in test [1], the EC50 was more than 5000 nM. Besides, in test [2], the IC50 lay within 5 to 50 nM.
The corresponding values for `CCc1c(N2CCN(C(=O)c3ncnc(C)c3O)CC2)c(=O)c2nc3c(nc2n1CC(=O)Nc1ccc(C(F)(F)F)cc1Cl)CCN3C` [I-116, N-(2-chloro-4-(trifluoromethyl)phenyl)-2-(6-ethyl-7-(4-(5-hydroxy-6-methylpyrimidine-4-carbonyl)piperazin-1-yl)-1-methyl-8-oxo-1,2,3,8-tetrahydro-5H-pyrido[2,3-b]pyrrolo[2,3-e]pyrazin-5-yl)acetamide] are 500 to 2000 nM and 5 to 50 nM.
For the compound `CCc1c(N2CCN(C(=O)c3ncnc(C)c3O)CC2)c(=O)c2nc(C=C3CC(OC)C3)cnc2n1CC(=O)Nc1ccc(C(F)(F)F)cc1Cl` (centres unmarked) [I-117, N-(2-chloro-4-(trifluoromethyl)phenyl)-2-(6-ethyl-7-(4-(5-hydroxy-6-methylpyrimidine-4-carbonyl)piperazin-1-yl)-2-((3-methoxycyclobutylidene)methyl)-8-oxopyrido[2,3-b]pyrazin-5(8H)-yl)acetamide], in test [1], the EC50 was less than 500 nM. The IC50 in test [2] fell in the range of 5 to 50 nM.
The corresponding values for `CCc1c(N2CCN(C(=O)c3ncnc(C)c3O)C[C@@H]2C)c(=O)c2nc(N(C)C)nnc2n1CC(=O)Nc1ccc(C(F)(F)F)cc1Cl` [I-118, (S)—N-(2-chloro-4-(trifluoromethyl)phenyl)-2-(3-(dimethylamino)-7-ethyl-6-(4-(5-hydroxy-6-methylpyrimidine-4-carbonyl)-2-methylpiperazin-1-yl)-5-oxopyrido[3,2-e] [1,2,4]triazin-8(5H)-yl)acetamide] are 500 to 2000 nM and 5 to 50 nM.
For `CCc1c(N2CCN(C(=O)c3ncnc(C)c3O)[C@H]3CC[C@@H]32)c(=O)c2nc(N(C)C)cnc2n1CC(=O)Nc1ccc(OC(F)(F)F)cc1` [I-120, 2-[2-(dimethylamino)-6-ethyl-7-[(1S,6S)-5-(5-hydroxy-6-methylpyrimidine-4-carbonyl)-2,5-diazabicyclo[4.2.0]octan-2-yl]-8-oxo-5H,8H-pyrido[2,3-b]pyrazin-5-yl]-N-[4-(trifluoromethoxy)phenyl]acetamide] the same measures were less than 500 nM and 5 to 50 nM.
As to `CCc1c(N2CCN(C(=O)c3ncnc(C)c3O)[C@H]3CC[C@@H]32)c(=O)c2nc(N(C)C)cnc2n1CC(=O)Nc1ccc(C(F)(F)F)cc1F` [I-121, 2-(2-(dimethylamino)-6-ethyl-7-((1S,6S)-5-(5-hydroxy-6-methylpyrimidine-4-carbonyl)-2,5-diazabicyclo[4.2.0]octan-2-yl)-8-oxopyrido[2,3-b]pyrazin-5(8H)-yl)-N-(2-fluoro-4-(trifluoromethyl)phenyl)acetamide], the EC50 in test [1] was less than 500 nM. Also, the IC50 in test [2] lay in the range of 5 to 50 nM.
The corresponding values for `CCc1c(N2CCN(C(=O)c3ncnc(C)c3O)[C@H]3CCC[C@@H]32)c(=O)c2nc3cc(C)oc3nc2n1CC(=O)Nc1ccc(C(F)(F)F)cc1Cl` [I-123, 2-{11-[(4aS,7aS)-4-(5-hydroxy-6-methylpyrimidine-4-carbonyl)-octahydro-1H-cyclopenta[b]pyrazin-1-yl]-12-ethyl-5-methyl-10-oxo-4-oxa-2,8,13-triazatricyclo[7.4.0.0^{3,7}]trideca-1,3(7),5,8,11-pentaen-13-yl}-N-[2-chloro-4-(trifluoromethyl)phenyl]acetamide] are less than 500 nM and 5 to 50 nM.
With `CCc1c(N2CCN(C(=O)c3ncnc(C)c3O)[C@H]3CC[C@@H]32)c(=O)c2cc(N(C)C)cnc2n1CC(=O)Nc1ccc(C(F)(F)F)cc1Cl` [I-124, N-[2-chloro-4-(trifluoromethyl)phenyl]-2-[6-(dimethylamino)-2-ethyl-3-[(1S,6S)-5-(5-hydroxy-6-methylpyrimidine-4-carbonyl)-2,5-diazabicyclo[4.2.0]octan-2-yl]-4-oxo-1,4-dihydro-1,8-naphthyridin-1-yl]acetamide], the EC50 in test [1] was less than 500 nM. In addition, the IC50 in test [2] was 5 to 50 nM.
For `CCc1c(N2CCN(C(=O)c3ncnc(C)c3O)[C@H]3CC[C@@H]32)c(=O)c2nc(C3CC3)cnc2n1CC(=O)Nc1ccc(C(F)(F)F)cc1F` [I-125, 2-(2-cyclopropyl-6-ethyl-7-((1S,6S)-5-(5-hydroxy-6-methylpyrimidine-4-carbonyl)-2,5-diazabicyclo[4.2.0]octan-2-yl)-8-oxopyrido[2,3-b]pyrazin-5(8H)-yl)-N-(2-fluoro-4-(trifluoromethyl)phenyl)acetamide] the same measures were less than 500 nM and not above 5 nM.
`CCc1c(N2CCN(C(=O)c3ncnc(C)c3O)[C@H]3CC[C@@H]32)c(=O)c2nc(C)c(C)nc2n1CC(=O)Nc1ccc(C(F)(F)F)cc1Cl` [I-126, N-(2-chloro-4-(trifluoromethyl)phenyl)-2-(6-ethyl-7-((1S,6S)-5-(5-hydroxy-6-methylpyrimidine-4-carbonyl)-2,5-diazabicyclo[4.2.0]octan-2-yl)-2,3-dimethyl-8-oxopyrido[2,3-b]pyrazin-5(8H)-yl)acetamide]: the EC50 in test [1] is less than 500 nM. Besides, in test [2], the IC50 fell in the range of 5 to 50 nM.
`CCc1c(N2CCN(C(=O)c3c(OC)ncc(C)c3O)[C@H]3CC[C@@H]32)c(=O)c2nc(C)c(C)nc2n1CC(=O)Nc1ccc(C(F)(F)F)cc1Cl` [I-127, N-[2-chloro-4-(trifluoromethyl)phenyl]-2-{6-ethyl-7-[(1S,6S)-5-(4-hydroxy-2-methoxy-5-methylpyridine-3-carbonyl)-2,5-diazabicyclo[4.2.0]octan-2-yl]-2,3-dimethyl-8-oxo-5H,8H-pyrido[2,3-b]pyrazin-5-yl}acetamide]: in test [1], the EC50 is less than 500 nM. In addition, the IC50 in test [2] lay in the range of 5 to 50 nM.
As to `CCc1c(N2CCN(C(=O)c3ncnc(C)c3O)[C@H]3CC[C@@H]32)c(=O)c2nc(C)c(C)nc2n1CC(=O)Nc1ccc(C(F)(F)F)cc1F` [I-128, 2-(6-ethyl-7-((1S,6S)-5-(5-hydroxy-6-methylpyrimidine-4-carbonyl)-2,5-diazabicyclo[4.2.0]octan-2-yl)-2,3-dimethyl-8-oxopyrido[2,3-b]pyrazin-5(8H)-yl)-N-(2-fluoro-4-(trifluoromethyl)phenyl)acetamide], the EC50 in test [1] was less than 500 nM. The IC50 in test [2] lay within 5 to 50 nM.
For `CCc1c(N2CCN(C(=O)c3ncnc(C)c3O)[C@H]3CC[C@@H]32)c(=O)c2nc(N(C)C)c(C)nc2n1CC(=O)Nc1ccc(C(F)(F)F)cc1F` [I-129] the same measures were less than 500 nM and 5 to 50 nM.
The corresponding values for `CCc1c(N2CCN(C(=O)c3ncnc(C)c3O)[C@H]3CCC[C@@H]32)c(=O)c2nc(N(C)C)cnc2n1CC(=O)Nc1ccc(C(F)(F)F)cc1Cl` [I-130, 2-{7-[(4aS,7aS)-4-(5-hydroxy-6-methylpyrimidine-4-carbonyl)-octahydro-1H-cyclopenta[b]pyrazin-1-yl]-2-(dimethylamino)-6-ethyl-8-oxo-5H,8H-pyrido[2,3-b]pyrazin-5-yl}-N-[2-chloro-4-(trifluoromethyl)phenyl]acetamide] are less than 500 nM and 5 to 50 nM.
For the compound `CCc1c(N2CCN(C(=O)c3ncnc(C)c3O)CC2)c(=O)c2nc(N(C)C3CCC3)cnc2n1CC(=O)Nc1ccc(C(F)(F)F)cc1Cl` [I-131, N-[2-chloro-4-(trifluoromethyl)phenyl]-2-{2-[cyclobutyl(methyl)amino]-6-ethyl-7-[4-(5-hydroxy-6-methylpyrimidine-4-carbonyl)piperazin-1-yl]-8-oxo-5H,8H-pyrido[2,3-b]pyrazin-5-yl}acetamide], in test [1], the EC50 is 500 to 2000 nM. For the same compound, the IC50 in test [2] lay within 5 to 50 nM.
The corresponding values for `CCc1c(N2CCN(C(=O)c3ncnc(C)c3O)CC2)c(=O)c2nc(N(C)C)cnc2n1CC(=O)Nc1ccc(S(F)(F)(F)(F)F)cc1Cl` [I-132, N-[2-chloro-4-(pentafluoro-lambda6-sulfanyl)phenyl]-2-[2-(dimethylamino)-6-ethyl-7-[4-(5-hydroxy-6-methylpyrimidine-4-carbonyl)piperazin-1-yl]-8-oxo-5H,8H-pyrido[2,3-b]pyrazin-5-yl]acetamide] are less than 500 nM and 5 to 50 nM.
On to `CCc1c(N2CCN(C(=O)c3ncnc(C)c3O)CC2)c(=O)c2nc(N(C)C)cnc2n1CC(=O)Nc1c(F)cc(C(F)(F)F)cc1Cl` [I-133, N-[2-chloro-6-fluoro-4-(trifluoromethyl)phenyl]-2-[2-(dimethylamino)-6-ethyl-7-[4-(5-hydroxy-6-methylpyrimidine-4-carbonyl)piperazin-1-yl]-8-oxo-5H,8H-pyrido[2,3-b]pyrazin-5-yl]acetamide], for which, in test [1], the EC50 was more than 5000 nM. Further, in test [2], the IC50 was in the range of 5 to 50 nM.
The corresponding values for `CCc1c(N2CCN(C(=O)c3ncnc(C)c3O)CC2)c(=O)c2nc(/C=C/C(=O)N(C)C)cnc2n1CC(=O)Nc1ccc(C(F)(F)F)cc1Cl` [I-134, (2E)-3-[5-({[2-chloro-4-(trifluoromethyl)phenyl]carbamoyl}methyl)-6-ethyl-7-[4-(5-hydroxy-6-methylpyrimidine-4-carbonyl)piperazin-1-yl]-8-oxo-5H,8H-pyrido[2,3-b]pyrazin-2-yl]-N,N-dimethylprop-2-enamide] are more than 5000 nM and 50 to 100 nM.
The corresponding values for `CCc1c(N2CCN(C(=O)c3ncnc(C)c3O)CC2)c(=O)c2nc(-c3ccnn3C)cnc2n1CC(=O)Nc1ccc(C(F)(F)F)cc1Cl` [I-137, N-[2-chloro-4-(trifluoromethyl)phenyl]-2-{6-ethyl-7-[4-(5-hydroxy-6-methylpyrimidine-4-carbonyl)piperazin-1-yl]-2-(1-methyl-1H-pyrazol-5-yl)-8-oxo-5H,8H-pyrido[2,3-b]pyrazin-5-yl}acetamide] are more than 5000 nM and 5 to 50 nM.
